This data set can be described thus: pH of pravastatin sodium crystals kept in normal air, nitrogen or carbon dioxide atmosphere. Format: physicochemical. As to the method: Another observation was that carbon dioxide from the air can irreversibly bind to the active substance and can cause a drop of pH. This is illustrated by the following experiment: 5 g of pravastatin sodium were dissolved in 30 ml of methanol, the pH was adjusted to 10 with 3% aqueous solution of NaOH. 400 ml of ethylacetate were added and the crystals of pravastatin sodium were formed. Crystals were filtered and dried and then put into three different atmospheres: normal air, nitrogen atmosphere and carbon dioxide atmosphere. In normal air and in the nitrogen atmosphere the pH remained the same during a period of 24 hours (normal air: 9.2, nitrogen: 9.5), but in the carbon dioxide atmosphere the pH dropped in the first two minutes from 9.2 to 6.9. After 12 minutes the pH was 6.6 and after 1 hour the pH was 6.5. After that, the pH remained constant. The third observation is that a sufficient stabilization of the active substance is already obtained at a pH of at least 7.0, but a beneficially high stability is effected at a pH of at least 8.0. We have noticed that at a pH below 8 the formation of lactone has occured and also the amount of other impurities has increased. The presence of humidity in the air and a carbon dioxide-rich atmosphere makes the negative effect of a low pH even stronger. This is illustrated by the following experiment: Pravastatin was dissolved in different buffers with the pH in a range between 7 and 11 (F=phosphate, C=citrate, B=borate). The occurrence of pravastatin in lactone form and the formation of different degradation products (impurities) was measured after 1, 5, 13 and 28 days.

As to `CC[C@H](C)C(=O)O[C@H]1C[C@H](O)C=C2C=C[C@H](C)[C@H](CC[C@@H](O)C[C@@H](O)CC(=O)O)[C@H]21` [Pravastatin sodium, pravastatin sodium], the pH by setting is: (carbon dioxide atmosphere, after 12 minutes) 6.6; (carbon dioxide atmosphere, after 1 hour) 6.5; (carbon dioxide atmosphere, after the first two minutes) 6.9; (carbon dioxide atmosphere, starting value) 9.2; (crystals in nitrogen atmosphere, remained the same during 24 hours) 9.5; (crystals in normal air, remained the same during 24 hours) 9.2.

The values are drawn from patent publication US20040072894A1, “Stable pharmaceutical formulation comprising a HMG-CoA reductase inhibitor” (priority 1998, published 2004).
